Experimental findings from patent US11578055B2, “Triazacyclododecansulfonamide (“TCD”)-based protein secretion inhibitors” (KEZAR LIFE SCIENCES, priority 2018, dated 2023) are described below.

Data set [1] in a line: In Vitro Microsome Stability Assay (human). Type of data set: in vitro ADME. The settings on record: human liver microsomes, 30 min w/ NADPH. Summed up:
(§1)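 Test article, added from a 0.25 mM DMSO stock, was incubated with liver microsomes (20 mg/mL stock) in 0.1 M potassium phosphate at 37° C, with the reaction started by NADPH. Samples were quenched with acetonitrile containing internal standard at 0 and 30 min and analysed by LC-MS/MS. Values are % remaining at 30 min versus 0 min, using IS-normalised AUC ratios.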

Data set [2] is described as follows: In Vitro Microsome Stability Assay (mouse). Type of data set: in vitro ADME. The settings on record: mouse liver microsomes, 30 min w/ NADPH. Summed up:
as §1

Data set [3] concerns full length TNFα (amino acids 1-233) fused to Gaussia Luciferase. The data set is described as follows: Dox Induced TNFα-FL-Gluc Assay. The settings on record: 24 hr, Dox inducible, 293FRT/TO cells; read-out: 24 hr Dox Inducible TNFaFLGluc 293FRT/TO: Mean IC50. Type of data set: cell-based. Summed up: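 Compounds diluted in DMSO/medium with doxycycline were incubated at 37° C, 5% CO2 with 293 T-REx cells stably carrying a Tet-regulated TNFα(1-233)-Gaussia luciferase construct. Data for structures drawn without stereochemistry refer to stereoisomer mixtures.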

In data set [4] the test system is multiple myeloma cell line U266B1. Description: U266 Cell Viability Assay. The class given is cell-based, human. The settings on record: Homo sapiens, U-266; 48 hr, U266, Celltiter-Glo. The method in brief:
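Viability was measured by CellTiter-Glo luminescence after 48 h compound exposure at 37° C, 5% CO2. The cells were U266B1 multiple myeloma cells grown in RPMI 1640 plus 10% FBS. Where stereochemistry is not shown, values apply to the stereoisomer mixture.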

Data set [5] is described as follows: In Vitro Microsome Stability Assay (rat). The class given is in vitro ADME. The settings on record: rat liver microsomes, 30 min w/ NADPH. The method in brief: as §1
In data set [6] the test system is full length IL-2 (amino acids 1-153) fused to Gaussia Luciferase. The data set is described as follows: Dox Induced IL2-FL-Gluc Assay. The class given is cell-based. The settings on record: 24 hr, Dox inducible, 293FRT/TO cells; read-out: 24 hr Dox Inducible IL2FLGluc 293FRT/TO: Mean IC50. The method in brief: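 Compounds in DMSO/media with doxycycline were added to cells plated the previous day and incubated at 37° C, 5% CO2. Cells: stable Flp-In 293 T-REx line, Dox-regulated expression of IL-2 (aa 1-153) fused at its C-terminus to Gaussia luciferase.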

A short description of data set [7]: In Vitro Microsome Stability Assay (monkey). The settings on record: monkey liver microsomes, 30 min w/ NADPH. The class given is in vitro ADME. Summed up:
as §1

Data set [8] deals with multiple myeloma cell line NCl-H929. The data set is described as follows: H929 Cell Viability Assay. Type of data set: cell-based, human. The settings on record: Homo sapiens, NCI-H929, 48 h, H929, Celltiter-Glo. The method in brief:
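Viability was determined by CellTiter-Glo luminescence after a 48 h, 37 °C exposure of NCI-H929 cells to serial compound dilutions in medium containing 10% FBS. Where stereochemistry is not shown, values refer to a mix of stereoisomers.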

Data set [9] has as its system PD1 signal sequence plus 10 amino acids fused to Gaussia Luciferase (PD1-ss+10aa/Gaussia Luciferase). The data set is described as follows: Dox Induced PD1-ss-Gluc Assay. Type of data set: cell-based. The settings on record: 24 hr, Dox inducible, 293FRT/TO cells; read-out: 24 hr Dox Inducible PD1ssGluc 293FRT/TO: Mean IC50. The method in brief: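 Compound dilutions in DMSO/media containing doxycycline were applied to a stable, inducible 293 T-REx line carrying the luciferase fusion, then incubated at 37 °C, 5% CO2. Where stereochemistry is not drawn, values relate to isomer mixtures.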

As to `C[C@H]1CCN(S(=O)(=O)N2CCc3cc(Cl)ccc3C2)CCCN(CC2CCCCC2)CCCN1S(=O)(=O)c1ccc(N(C)C)cc1` [A150, 4-{[(2 S)-5-[(6-chloro-1,2,3,4-tetrahydroisoquinolin-2-yl)sulfonyl]-9-(cyclohexylmethyl)-2-methyl-1,5,9-triazacyclododecan-1-yl]sulfonyl}-N,N-dimethylaniline], the “Liver Microsome Stability-% Left after 30 min w/ NADPH (%) Human” value (shortened to “Liver Microsome Stability-% Left … (%) Human”) in [1] came out at 4.6%. For the same compound, the “Liver Microsome Stability-% Left after 30 min w/ NADPH (%) Mouse” value (shortened to “Liver Microsome Stability-% Left … (%) Mouse”) in data set [2] turned out to be 1.38%. Besides, the IC50 in data set [3] worked out at 468 nM; in data set [6], 41.3 nM; in data set [9], 30.3 nM. The EC50 is greater than 25000 nM in [4] and 2000 nM in data set [8]. Further, in [5], the “Liver Microsome Stability-% Left after 30 min w/ NADPH (%) Rat” value (shortened to “Liver Microsome Stability-% Left … (%) Rat”) was 2.02%. For the same compound, in data set [7], the “Liver Microsome Stability-% Left after 30 min w/ NADPH (%) Monkey” value (“Liver Microsome Stability-% Left … (%) Monkey” for short) stood at 2.2%.

Take `CC(C)CN1CCCN(S(=O)(=O)c2ccc(N(C)C)cc2)C[C@H](C)CN(S(=O)(=O)N2CCc3cc(Cl)ccc3C2)CCC1` [A152]: in data set [1], the “Liver Microsome Stability-% Left … (%) Human” value worked out at 3.69%. Further, the “Liver Microsome Stability-% Left … (%) Mouse” value in data set [2] came out at 5.06%. Further, the IC50 turned out to be 1030 nM in data set [3], 174 nM in [6] and 81.5 nM in data set [9]. The EC50 is greater than 25000 nM in data set [4] and 2170 nM in data set [8]. In addition, the “Liver Microsome Stability-% Left … (%) Rat” value in [5] is listed as 3.6%. Also, the “Liver Microsome Stability-% Left … (%) Monkey” value in data set [7] came to 3.22%.

As to `C[C@H]1CN(S(=O)(=O)c2ccc(N(C)C)cc2)CCCN(CC2CCCCC2)CCCN(S(=O)(=O)N2CCN(C(=O)OC(C)(C)C)CC2)C1` [A153, tert-butyl 4-{[(3S)-9-(cyclohexylmethyl)-5-[4-(dimethylamino)benzenesulfonyl]-3-methyl-1,5,9-triazacyclododecan-1-yl]sulfonyl}piperazine-1-carboxylate], in data set [1], the “Liver Microsome Stability-% Left … (%) Human” value is 2.57%. Besides, the “Liver Microsome Stability-% Left … (%) Mouse” value in [2] turned out to be 0.87%. The values for the IC50 in data set [3], in data set [6] and in [9] were greater than 25000 nM, 1260 nM and 1290 nM, respectively. The EC50 in data set [4] and in data set [8] was greater than 25000 nM in each case. Besides, the “Liver Microsome Stability-% Left … (%) Rat” value in [5] is given as 6.23%. Besides, the “Liver Microsome Stability-% Left … (%) Monkey” value in [7] was determined as 1.26%.

`COc1ccccc1N1CCN(S(=O)(=O)N2CCCN(CC3CCCCC3)CCCN(S(=O)(=O)c3ccc(N(C)C)cc3)C[C@H](C)C2)CC1` [A154, 4-{[(3S)-9-(cyclohexylmethyl)-5-{[4-(2-methoxyphenyl)piperazin-1-yl]sulfonyl}-3-methyl-1,5,9-triazacyclododecan-1-yl]sulfonyl}-N,N-dimethylaniline]: the “Liver Microsome Stability-% Left … (%) Human” value in data set [1] is on record as 7.33%. Also, the “Liver Microsome Stability-% Left … (%) Mouse” value in [2] is reported as 17.5%. For the same compound, the IC50 in data set [3] amounted to 504 nM; in data set [6], 58.7 nM; in data set [9], 14.9 nM. Besides, the half-maximal effective concentration (EC50) in [4] is greater than 25000 nM; in data set [8], 749 nM. Further, in data set [5], the “Liver Microsome Stability-% Left … (%) Rat” value was 12.3%. In addition, in data set [7], the “Liver Microsome Stability-% Left … (%) Monkey” value is recorded as 10.2%.

Regarding `Cc1cccc(CN2CCCN(S(=O)(=O)c3ccc(N(C)C)cc3)C[C@H](C)CN(S(=O)(=O)N3CCc4cc(Cl)ccc4C3)CCC2)c1` [A156, 4-{[(3S)-5-[(6-chloro-1,2,3,4-tetrahydroisoquinolin-2-yl)sulfonyl]-3-methyl-9-[(3-methylphenyl)methyl]-1,5,9-triazacyclododecan-1-yl]sulfonyl}-N,N-dimethylaniline], the “Liver Microsome Stability-% Left … (%) Human” value in data set [1] was 81.3%. In addition, in data set [2], the “Liver Microsome Stability-% Left … (%) Mouse” value is listed as 75.6%. Further, the IC50 in data set [3] came to 1830 nM; in [6], 207 nM; in data set [9] it was 92.5 nM. The EC50 in [4] was greater than 25000 nM; in data set [8] it was 3710 nM. Further, in data set [5], the “Liver Microsome Stability-% Left … (%) Rat” value stood at 82.1%. Moreover, in [7], the “Liver Microsome Stability-% Left … (%) Monkey” value was 80.6%.

`C[C@H]1CN(S(=O)(=O)c2ccc(N(C)C)cc2)CCCN(CC2CCCC2)CCCN(S(=O)(=O)N2CCc3cc(Cl)ccc3C2)C1` [A157, 4-{[(3S)-5-[(6-chloro-1,2,3,4-tetrahydroisoquinolin-2-yl)sulfonyl]-9-(cyclopentylmethyl)-3-methyl-1,5,9-triazacyclododecan-1-yl]sulfonyl}-N,N-dimethylaniline]: the “Liver Microsome Stability-% Left … (%) Human” value in [1] is given as 21.1%. The “Liver Microsome Stability-% Left … (%) Mouse” value in data set [2] amounted to 23.3%. Also, the IC50 in [3] was 584 nM; in [6], 77.4 nM; in data set [9], 23.3 nM. Besides, the half-maximal effective concentration (EC50) in data set [4] was greater than 25000 nM; in data set [8] it was 858 nM. Also, the “Liver Microsome Stability-% Left … (%) Rat” value in [5] is 32.2%. The “Liver Microsome Stability-% Left … (%) Monkey” value in data set [7] is given as 27.3%.

In the case of `C[C@H]1CN(CC2CCCCC2)C[C@H](C)CN(S(=O)(=O)N2CCc3cc(Cl)ccc3C2)C[C@@H](C)CN(S(=O)(=O)c2ccc(N(C)C)cc2)C1` [A160, 4-{[(3S,7S,11S)-5-[(6-chloro-1,2,3,4-tetrahydroisoquinolin-2-yl]sulfonyl]-9-(cyclohexylmethyl)-3,7,11-trimethyl-1,5,9-triazacyclododecan-1-yl]sulfonyl}-N,N-dimethylaniline], the “Liver Microsome Stability-% Left … (%) Human” value in [1] is on record as 71.8%. For the same compound, the “Liver Microsome Stability-% Left … (%) Mouse” value in [2] is 61.3%. The IC50 in data set [3] worked out at 10700 nM; in data set [6] it was 453 nM; in [9] it was 153 nM. Besides, the EC50 in [4] and in [8] was greater than 25000 nM throughout. In [5], the “Liver Microsome Stability-% Left … (%) Rat” value came out at 51.1%. Also, the “Liver Microsome Stability-% Left … (%) Monkey” value in data set [7] is 46.1%.

Take `Cc1cc(F)ccc1N1CC2(C1)CN(S(=O)(=O)N1CCCN(CC3CCCCC3)CCCN(S(=O)(=O)c3ccc(N(C)C)cc3)C[C@H](C)C1)C2` [A161, 4-{[(3S)-9-(cyclohexylmethyl)-5-{[6-(4-fluoro-2-methylphenyl)-2,6-diazaspiro[3.3]heptan-2-yl]sulfonyl}-3-methyl-1,5,9-triazacyclododecan-1-yl]sulfonyl}-N,N-dimethylaniline]: in [1], the “Liver Microsome Stability-% Left … (%) Human” value was 20.2%. For the same compound, the “Liver Microsome Stability-% Left … (%) Mouse” value in [2] stood at 26.5%. Moreover, the IC50 in data set [3] was greater than 25000 nM; in data set [6], 726 nM; in data set [9], 577 nM. In addition, the EC50 in data set [4] and in [8] was greater than 25000 nM throughout. Also, the “Liver Microsome Stability-% Left … (%) Rat” value in data set [5] stood at 27.3%. Also, the “Liver Microsome Stability-% Left … (%) Monkey” value in data set [7] is 16.7%.

As for `Cc1cc(F)ccc1N1CCN(S(=O)(=O)N2CCCN(CC3CCCCC3)CCCN(S(=O)(=O)c3ccc(N(C)C)cc3)C[C@H](C)C2)[C@@H](C)C1` [A162, 4-{[(3S)-9-(cyclohexylmethyl)-5-{[(2 S)-4-(4-fluoro-2-methylphenyl)-2-methylpiperazin-1-yl]sulfonyl}-3-methyl-1,5,9-triazacyclododecan-1-yl]sulfonyl}-N,N-dimethylaniline], the “Liver Microsome Stability-% Left … (%) Human” value in data set [1] is 70.5%. Moreover, the “Liver Microsome Stability-% Left … (%) Mouse” value in data set [2] amounted to 62.5%. In addition, the values for the IC50 in data set [3], in data set [6] and in [9] were 6260 nM, 201 nM and 101 nM, respectively. The EC50 in [4] and in data set [8] was greater than 25000 nM throughout. Further, the “Liver Microsome Stability-% Left … (%) Rat” value in [5] amounted to 69.6%. For the same compound, in [7], the “Liver Microsome Stability-% Left … (%) Monkey” value was found to be 60.3%.

As for `C[C@@H]1CN(CC2CCCCC2)C[C@@H](C)CN(S(=O)(=O)N2CCc3cc(Cl)ccc3C2)C[C@@H](C)CN(S(=O)(=O)c2ccc(N(C)C)cc2)C1` [A164], in [1], the “Liver Microsome Stability-% Left … (%) Human” value was 64.8%. In [2], the “Liver Microsome Stability-% Left … (%) Mouse” value came out at 69.0%. Besides, the values for the IC50 in data set [3], in data set [6] and in data set [9] were greater than 25000 nM, 974 nM and 455 nM, respectively. In addition, the EC50 in [4] and in data set [8] was greater than 25000 nM each time. Moreover, the “Liver Microsome Stability-% Left … (%) Rat” value in data set [5] is on record as 57.9%. The “Liver Microsome Stability-% Left … (%) Monkey” value in data set [7] was 40.9%.
